ChEMBL document CHEMBL2150919, “Benzenesulfonyl and Benzenesulfonamide as Modulators of the 5-HT6 Receptor: Patent Highlight” (ACS Med Chem Lett, 2012)

Each compound was assayed against 5-hydroxytryptamine receptor 6 (Homo sapiens, UniProt P50406) (assay: Displacement of [3H]-lysergic acid diethylamine from human recombinant 5-HT6 receptor).
Chain of 5-hydroxytryptamine receptor 6 (P50406 whole entry): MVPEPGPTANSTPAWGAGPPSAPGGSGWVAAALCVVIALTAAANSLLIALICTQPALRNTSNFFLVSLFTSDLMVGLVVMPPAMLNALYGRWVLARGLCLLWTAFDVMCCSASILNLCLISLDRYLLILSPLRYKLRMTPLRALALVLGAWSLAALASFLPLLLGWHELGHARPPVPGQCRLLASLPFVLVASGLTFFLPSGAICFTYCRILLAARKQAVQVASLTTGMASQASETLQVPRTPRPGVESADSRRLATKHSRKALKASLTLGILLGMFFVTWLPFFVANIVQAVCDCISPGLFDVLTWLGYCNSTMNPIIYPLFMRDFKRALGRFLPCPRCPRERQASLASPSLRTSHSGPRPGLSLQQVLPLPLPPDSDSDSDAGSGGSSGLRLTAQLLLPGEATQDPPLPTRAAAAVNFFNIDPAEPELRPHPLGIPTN
In the case of `COCc1cccc(NS(=O)(=O)c2ccc(C)c(N3CCNCC3)c2)c1`, the Ki is reported as under 10 nM.
Work on `COCc1cccc(NS(=O)(=O)c2ccc(OC)c(N3CCNCC3)c2)c1` yielded a Ki of under 10 nM.
With `CCOc1ccc(S(=O)(=O)Nc2cccc(COC)c2)cc1N1CCNCC1` the Ki was under 10 nM.
For `COCc1ccccc1NS(=O)(=O)c1ccc(OC)c(N2CCNCC2)c1`, the Ki was under 10 nM.
Compound `CCOCc1cccc(NS(=O)(=O)c2ccc(OC)c(N3CCNCC3)c2)c1` has a Ki of under 10 nM.
Work on `COc1ccc(S(=O)(=O)Nc2cccc(COCC(F)(F)F)c2)cc1N1CCNCC1` yielded a Ki of under 10 nM.
For `COCc1cccc(NS(=O)(=O)c2ccc(OC)c(N3CCN(C)CC3)c2)c1`, the Ki was under 10 nM.
`COc1ccc(S(=O)(=O)Nc2cccc(C(C)OC)c2)cc1N1CCNCC1` (stereo not drawn) gave a Ki of under 20 nM.
`COCc1cccc(NS(=O)(=O)c2ccc(OC)c(N3CCCNCC3)c2)c1` showed a Ki of under 20 nM.
With `COCc1cccc(N(C)S(=O)(=O)c2ccc(OC)c(N3CCNCC3)c2)c1` the Ki was under 100 nM.
Compound `COCc1ccc(NS(=O)(=O)c2ccc(OC)c(N3CCNCC3)c2)cc1` has a Ki of under 100 nM.
With `COCc1ccccc1NS(=O)(=O)c1ccc(C)c(N2CCNCC2)c1` the Ki was under 100 nM.
In the case of `CCOc1ccc(S(=O)(=O)Nc2ccccc2COC)cc1N1CCNCC1`, the Ki is reported as under 10 nM.
Compound `CCOc1ccc(S(=O)(=O)Nc2ccccc2COC)cc1N1CCN(C)CC1` has a Ki of under 10 nM.
`CCOc1ccc(S(=O)(=O)Nc2cccc(COC)c2)cc1N1CCN(C)CC1` gave a Ki of under 10 nM.
With `COCc1cccc(NS(=O)(=O)c2ccc(C)c(N3CCN(C)CC3)c2)c1` the Ki was under 100 nM.
Work on `COCc1ccccc1NS(=O)(=O)c1ccc(OC)c(N2CCN(C)CC2)c1` yielded a Ki of under 10 nM.
For `COCc1ccccc1NS(=O)(=O)c1ccc(C)c(N2CCN(C)CC2)c1`, the Ki was under 100 nM.
